These are literature values, as cited in patent US8815898B2, “6,7-disubstituted-sioquinoline derivatives and their use” (Montisera Ltd, priority 2010, dated 2014).

Turning to `c1ccc2c(c1)CCNC2` [TIQ], the “hydroxylated (C4 of the isoquinoline backbone) derivative in the urine” value (most abundant metabolite in urine, 4-hydroxy derivative of the parent) is 2.7%. Besides, where the note is “share excreted in urine unchanged”, the “excreted in urine unchanged” value was 76%. For the same compound, the “exit the brain unchanged” value (share of compound leaving the brain unchanged) is 90.4%.
